This is an account of results in PMC9476183 (ACS Omega, 2022).

Molecules are shown by their SMILES. Where “and” joins values, the source holds several entries; their conditions need not be identical. Identical values can stand only once.

The target in one series is T1, recombinant human CYP1A1 (Homo sapiens, UniProt P04798).
T1 sequence (P04798 1-512): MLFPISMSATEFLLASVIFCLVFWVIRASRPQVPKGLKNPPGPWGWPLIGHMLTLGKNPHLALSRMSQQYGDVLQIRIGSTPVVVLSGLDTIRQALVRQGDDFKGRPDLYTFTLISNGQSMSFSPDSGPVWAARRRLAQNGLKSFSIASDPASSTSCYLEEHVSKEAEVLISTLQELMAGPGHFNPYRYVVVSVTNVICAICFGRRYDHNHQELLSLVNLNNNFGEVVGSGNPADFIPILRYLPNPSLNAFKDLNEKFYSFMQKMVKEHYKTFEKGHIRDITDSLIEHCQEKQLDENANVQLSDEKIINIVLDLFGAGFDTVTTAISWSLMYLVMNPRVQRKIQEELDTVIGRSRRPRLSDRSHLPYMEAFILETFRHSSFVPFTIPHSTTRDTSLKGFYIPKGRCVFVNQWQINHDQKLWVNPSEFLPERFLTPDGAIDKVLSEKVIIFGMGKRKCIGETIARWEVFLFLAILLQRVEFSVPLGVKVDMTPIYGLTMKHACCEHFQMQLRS
The experiment in a line: EROD assay, CYP1A1 inhibition. The class given is biochemical.

Series [1] deals with myeloid leukemia cell lines. The conditions noted are these: ref [64],[65]; cited from earlier work.
A further series has as its target T2, CYP1B1 over CYP1A1 (Homo sapiens, UniProt Q16678).
T2 sequence (Q16678 1-543): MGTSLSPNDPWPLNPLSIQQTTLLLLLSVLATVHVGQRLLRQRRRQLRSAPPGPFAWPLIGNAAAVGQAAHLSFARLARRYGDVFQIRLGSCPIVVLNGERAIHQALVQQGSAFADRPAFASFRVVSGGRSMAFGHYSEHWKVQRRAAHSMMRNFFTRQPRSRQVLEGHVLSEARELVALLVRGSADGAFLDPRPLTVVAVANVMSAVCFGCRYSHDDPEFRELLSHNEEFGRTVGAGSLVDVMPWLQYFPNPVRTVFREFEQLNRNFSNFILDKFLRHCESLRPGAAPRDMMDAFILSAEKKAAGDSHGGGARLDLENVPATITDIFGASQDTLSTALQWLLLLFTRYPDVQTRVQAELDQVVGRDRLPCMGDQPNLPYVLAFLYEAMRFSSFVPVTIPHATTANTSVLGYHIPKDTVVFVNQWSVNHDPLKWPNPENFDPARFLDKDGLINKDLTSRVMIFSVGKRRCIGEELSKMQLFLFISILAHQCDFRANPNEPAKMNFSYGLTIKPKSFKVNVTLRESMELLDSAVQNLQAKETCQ
The experiment in a line: EROD assay, CYP1B1 inhibition. To be noted: human.

For a further series, the target named is T3, recombinant human CYP1B1 (Homo sapiens, UniProt Q16678).
T3 sequence (Q16678 1-543): T2 sequence (Q16678 1-543)
The experiment in a line: EROD assay, CYP1B1 inhibition. The conditions noted are these: IC50 CYP1B1 ± SD, recombinant human enzyme, EROD assay, triplicate.

Another series has as its system MDA-MB-231. To be noted: MDA-MB-231, apoptosis mechanism; ref [66]; cited from earlier work.
Series [2] has as its system orthotopic 4T1 breast cancer models. The conditions noted are these: by inhibiting tumor-cell platelet aggregation, ref [63]; cited from earlier work.
Setting [3] is: pH 7.4, selectivity CYP1A1/CYP1B1, ratio of IC50 values.

A word on the IC50: it is the concentration needed to halve the response being measured.

For `O=c1cc(-c2ccccc2)oc2c1ccc1ccccc12` [ANF, α-naphthoflavone], the IC50 on recombinant human CYP1A1 was 20 ± 4 nM.

Regarding `CN(C)CC/C=C1/c2ccccc2Sc2ccc(Cl)cc21` [chlorprothixene], the concentration for half-maximal inhibition (IC50) was 490 ± 40 nM on recombinant human CYP1A1; 72 nM and 70 nM on recombinant human CYP1B1. Moreover, the cell death result in series [1] was “induce cell death by apoptosis”. Also, the selectivity ratio at CYP1B1 over CYP1A1 (setting [3]) stood at 6.8; on CYP1B1 over CYP1A1 (pH 7.4, selectivity toward CYP1B1 over CYP1A1, text), 7.

For `COc1ccc(Cl)cc1C(=O)NCCc1ccc(S(=O)(=O)NC(=O)NC2CCCCC2)cc1` [glibenclamide], the IC50 on recombinant human CYP1A1 and on recombinant human CYP1B1 was above 10000 nM throughout.

For the molecule `CC1CCc2c(N3CCC(O)CC3)c(F)cc3c(=O)c(C(=O)O)cn1c23` (stereo not shown) [nadifloxacin], the IC50 on recombinant human CYP1A1 is 2360 ± 200 nM; on recombinant human CYP1B1 it was 1460 nM. Moreover, the anticancer activity result in the series on MDA-MB-231 is “promising anticancer activity”. For the same molecule, on CYP1B1 over CYP1A1 (setting [3]), the selectivity ratio turned out to be 1.61.

As to `CCCSc1nc(N[C@@H]2C[C@H]2c2ccc(F)c(F)c2)c2nnn([C@@H]3C[C@H](OCCO)[C@@H](O)[C@H]3O)c2n1` [ticagrelor], the IC50 at recombinant human CYP1A1 came to 3450 ± 390 nM; at recombinant human CYP1B1 it was 2810 ± 900 nM. The breast cancer prevention result in series [2] is “breast cancer prevention activity”. In addition, the selectivity ratio at CYP1B1 over CYP1A1 (setting [3]) was determined as 1.22.
